Earlier results, collected in PubChem BioAssay AID1259409 (Chemical Carcinogenesis Research Information System (CCRIS), 2018).

Test system: rodent chemically induced tumor inhibition, incidence and multiplicity
Assay: CCRIS tumor inhibitor studies
Settings: Promoter: NONE; for outcome: Carcinogen: OCHRATOXIN A (303-47-9), Strain/Sex: LEWIS/FEMALE

For `O=S(=O)(O)CCS`, the “tumour outcome (control, treated, inhibition, significance)” value (Carcinogen: 17BETA-ESTRADIOL, 50-28-2, Dose [Inhibitor]: 0, 0.05% IN DRINKING WATER 5 D/WK BEGINNING 5 D POST CARCINOGEN DOSE (STUDY DURATION: 7.5 MO), Route [Inhibitor]: ORAL, Species: HAMSTER, Strain/Sex: SYRIAN/MALE, Target Tissue: Type of Lesion: KIDNEY: TUMOR, Dose [Carcinogen]: 25 MG PELLET REPLACED WITH A SECOND PELLET AFTER 4 MO) is given as 13/13 (100%), 15/19 (79%), 21%, not calculated, the “tumour outcome (control, treated, inhibition, significance)” value (Carcinogen: CYCLOPHOSPHAMIDE, 50-18-0, Dose [Inhibitor]: 5 MG/KG BW IN DRINKING WATER 5/WK FOR 20 MO SIMULTANEOUSLY WITH CARCINOGEN TREATMENT (STUDY DURATION: 20 MO), Route [Inhibitor]: ORAL, Species: RAT, Strain/Sex: SPRAGUE-DAWLEY/MALE, Target Tissue: Type of Lesion: NERVOUS TISSUE: NEOPLASM, Dose [Carcinogen]: 2.5 MG/KG BW IN DRINKING WATER 5/WK FOR 20) is given as 14%, 19%, -36%, not calculated and the “tumour outcome (control, treated, inhibition, significance)” value (Carcinogen: CYCLOPHOSPHAMIDE, 50-18-0, Dose [Inhibitor]: 5 MG/KG BW IN DRINKING WATER 5/WK FOR 20 MO SIMULTANEOUSLY WITH CARCINOGEN TREATMENT (STUDY DURATION: 20 MO), Route [Inhibitor]: ORAL, Species: RAT, Strain/Sex: SPRAGUE-DAWLEY/MALE, Target Tissue: Type of Lesion: URINARY BLADDER: TUMOR, Dose [Carcinogen]: 2.5 MG/KG BW IN DRINKING WATER 5/WK FOR 20 MO) is given as 30%, 22%, 27%, p>0.003*. The “tumour outcome (control, treated, inhibition, significance)” value (Carcinogen: CYCLOPHOSPHAMIDE, 50-18-0, Dose [Inhibitor]: 5 MG/KG BW IN DRINKING WATER 5/WK FOR DURATION OF STUDY SIMULTANEOUSLY WITH CARCINOGEN TREATMENT (STUDY DURATION: LIFE), Route [Inhibitor]: ORAL, Species: RAT, Strain/Sex: SPRAGUE-DAWLEY/MALE, Target Tissue: Type of Lesion: URINARY BLADDER: PAPILLOMA, CARCINOMA, Dose [Carcinogen]: 2.5 MG/KG BW IN DRINKING WATER 5/WK FOR DURATION OF STUDY) was 32/100 (32%), 12/50 (24%), 25%, not calculated, the “tumour outcome (control, treated, inhibition, significance)” value (Carcinogen: CYCLOPHOSPHAMIDE, 50-18-0, Dose [Inhibitor]: 15 MG/KG BW IN DRINKING WATER 5/WK FOR 20 MO SIMULTANEOUSLY WITH CARCINOGEN TREATMENT (STUDY DURATION: 20 MO), Route [Inhibitor]: ORAL, Species: RAT, Strain/Sex: SPRAGUE-DAWLEY/MALE, Target Tissue: Type of Lesion: NERVOUS TISSUE: NEOPLASM, Dose [Carcinogen]: 2.5 MG/KG BW IN DRINKING WATER 5/WK FOR 20 MO) was 14%, 24%, -71%, not calculated and the “tumour outcome (control, treated, inhibition, significance)” value (Carcinogen: CYCLOPHOSPHAMIDE, 50-18-0, Dose [Inhibitor]: 15 MG/KG BW IN DRINKING WATER 5/WK FOR 20 MO SIMULTANEOUSLY WITH CARCINOGEN TREATMENT (STUDY DURATION: 20 MO), Route [Inhibitor]: ORAL, Species: RAT, Strain/Sex: SPRAGUE-DAWLEY/MALE, Target Tissue: Type of Lesion: URINARY BLADDER: TUMOR, Dose [Carcinogen]: 2.5 MG/KG BW IN DRINKING WATER 5/WK FOR 20 MO) was 30%, 7%, 77%, p>0.003*. The “tumour outcome (control, treated, inhibition, significance)” value (Carcinogen: CYCLOPHOSPHAMIDE, 50-18-0, Dose [Inhibitor]: 15 MG/KG BW IN DRINKING WATER 5/WK FOR DURATION OF STUDY SIMULTANEOUSLY WITH CARCINOGEN TREATMENT (STUDY DURATION: LIFE), Route [Inhibitor]: ORAL, Species: RAT, Strain/Sex: SPRAGUE-DAWLEY/MALE, Target Tissue: Type of Lesion: URINARY BLADDER: PAPILLOMA, CARCINOMA, Dose [Carcinogen]: 2.5 MG/KG BW IN DRINKING WATER 5/WK FOR DURATION OF STUDY) was 32/100 (32%), 1/50 (2%), 94%, not calculated, the “tumour outcome (control, treated, inhibition, significance)” value (Carcinogen: N-BUTYL-N(4-HYDROXYBUTYL)NITROSAMINE (3817-11-6), Dose [Inhibitor]: 0.05% IN DRINKING WATER FOR 15 WK (STUDY DURATION: 15 WK), Route [Inhibitor]: ORAL, Species: RAT, Strain/Sex: WISTAR/MALE, Target Tissue: Type of Lesion: URINARY BLADDER: PAPILLOMA, Dose [Carcinogen]: 0.025% IN DRINKING WATER FOR 15 WK) was 38/40 (95%), 18/30 (60%), 37%, p< 0.01 and the “tumour outcome (control, treated, inhibition, significance)” value (Carcinogen: N-BUTYL-N(4-HYDROXYBUTYL)NITROSAMINE (3817-11-6), Dose [Inhibitor]: 0.05% IN DRINKING WATER FOR 15 WK (STUDY DURATION: 15 WK), Route [Inhibitor]: ORAL, Species: RAT, Strain/Sex: WISTAR/MALE, Target Tissue: Type of Lesion: URINARY BLADDER: TRANSITIONAL CELL CARCINOMA, Dose [Carcinogen]: 0.025% IN DRINKING WATER FOR 15 WK) was 4/40 (10%), 1/30 (3%), 70%, not significant. The “tumour outcome (control, treated, inhibition, significance)” value (Carcinogen: N-BUTYL-N-(4-HYDROXYBUTYL)NITROSAMINE, 3817-11-6, Dose [Inhibitor]: 350 MG/KG IN DRINKING WATER 5/WK FOR 39 WK SIMULTANEOUSLY WITH CARCINOGEN TREATMENT FOLLOWED BY OBSERVATION FOR LIFE (ST, Route [Inhibitor]: ORAL, Species: RAT, Strain/Sex: SPRAGUE-DAWLEY/MALE, Target Tissue: Type of Lesion: URINARY BLADDER: PAPILLOMATOUS CARCINOMA, TRANSITIONAL CELL CARCINOMA, Dose [Carcinogen]: 70 MG/KG 2/WK FOR 39 WK SIMULTANEOUSLY WITH AGENT TREATMENT) was 96%, 91%, 5%, not significant, the outcome (Dose [Inhibitor]: 1 G/L IN DRINKING WATER FOR LIFETIME (STUDY DURATION: LIFETIME), Route [Inhibitor]: GAVAGE, Species: RAT, Target Tissue: Type of Lesion: URINARY BLADDER: TRANSITIONAL CELL CARCINOMA, Dose [Carcinogen]: 0.4 MG/KG BW 3X/WK FOR LIFETIME) was 0/20 (0%), 0/20 (0%), 0%, not significant and the outcome (Dose [Inhibitor]: 1 G/L IN DRINKING WATER FOR LIFETIME (STUDY DURATION: LIFETIME), Route [Inhibitor]: GAVAGE, Species: RAT, Target Tissue: Type of Lesion: URINARY BLADDER: TRANSITIONAL CELL PAPILLOMA, Dose [Carcinogen]: 0.4 MG/KG BW 3X/WK FOR LIFETIME) was 0/20 (0%), 0/20 (0%), 0%, not significant. The “tumour outcome (control, treated, inhibition, significance)” value (Carcinogen: OCHRATOXIN A, 303-47-9, Dose [Inhibitor]: 1 G/L IN DRINKING WATER FOR LIFETIME (STUDY DURATION: LIFETIME), Route [Inhibitor]: GAVAGE, Species: RAT, Strain/Sex: DA/FEMALE, Target Tissue: Type of Lesion: URINARY BLADDER: TRANSITIONAL CELL PAPILLOMA, Dose [Carcinogen]: 0.4 MG/KG BW 3X/WK FOR LIFETIME) was 2/40 (6%), 0/40 (0%), 100%, not significant and the “tumour outcome (control, treated, inhibition, significance)” value (Carcinogen: OCHRATOXIN A, 303-47-9, Dose [Inhibitor]: 1 G/L IN DRINKING WATER FOR LIFETIME (STUDY DURATION: LIFETIME), Route [Inhibitor]: GAVAGE, Species: RAT, Strain/Sex: DA/MALE, Target Tissue: Type of Lesion: URINARY BLADDER: TRANSITIONAL CELL CARCINOMA, Dose [Carcinogen]: 0.4 MG/KG BW 3X/WK FOR LIFETIME) was 2/20 (11%), 0/20 (0%), 100%, not significant.
